Values of other authors, collected in patent US10603272B2, “Stimulation of appetite and treatment of anorexia in dogs and cats” (Kindred Biosciences, Inc., priority 2015, dated 2020).

In the case of CN1CCN2c3ncccc3Cc3ccccc3C2C1 (stereo not shown) [mirtazapine], the solubility in water is given as “insoluble in water”.
